ChEMBL document CHEMBL5512659, “Structure optimizing of flavonoids against both MRSA and VRE” (Eur J Med Chem, 2024)
Converted amounts (≈) assume the structure as drawn. The source made the active and inactive calls. No cut-off for these calls is given here.

Tests used:
Enterococcus faecalis [1] = assay: Antibacterial activity against multidrug resistant Enterococcus faecalis ATCC 51299 in presence of 4.5 mM/L K+ (reference value: 1 ug/ml); type: functional
Cell membrane [2] = assay: Induction of membrane depolarization in methicillin resistant Staphylococcus aureus clinical isolate 003 assessed as increase in fluorescence intensity at 2 to 4 times MIC by DiSC3(5) dye based analysis
Cell membrane [3] = assay: Disruption of membrane permeability in methicillin resistant Staphylococcus aureus clinical isolate 003 assessed as increase in malondialdehyde level
Enterococcus faecalis [4] = assay: Antibacterial activity against multidrug resistant Enterococcus faecalis ATCC 51299 in presence of 2.5 mM/L Ca+ (reference value: 1 ug/ml); type: functional
Cell membrane [5] = assay: Induction of cell membrane damage in methicillin resistant Staphylococcus aureus clinical isolate 003 assessed as increase in red fluorescence at 2 to 4 times MIC by PI staining based analysis; type: cell membranes
Enterococcus faecalis [6] = assay: Antibacterial activity against multidrug resistant Enterococcus faecalis ATCC 51299 in presence of peptidoglycan; type: functional, organism-based
Cell membrane [7] = assay: Disruption of membrane permeability in multidrug resistant Enterococcus faecalis ATCC 51299 assessed as nucleic acid leakage at 2 to 4 times MIC
Cell membrane [8] = assay: Induction of membrane damage in methicillin resistant Staphylococcus aureus clinical isolate 003 assessed as rupture of bacterial surface at 2 to 4 times MIC by SEM analysis; type: cell membranes
Cell membrane [9] = assay: Disruption of membrane permeability in methicillin resistant Staphylococcus aureus clinical isolate 003 assessed as nucleic acid leakage at 2 to 4 times MIC
Enterococcus faecalis [10] = assay: Antibacterial activity against multidrug resistant Enterococcus faecalis ATCC 51299 in presence of 140 mM/L Na+ (reference value: 1 ug/ml); type: functional
Enterococcus faecalis [11] = assay: Antibacterial activity against Enterococcus faecalis clinical isolate 13; type: functional
Enterococcus faecalis [12] = assay: Antibacterial activity against multidrug resistant Enterococcus faecalis ATCC 51299 in presence of 1 mM/L Mg2+ (reference value: 1 ug/ml); type: functional
Cell membrane [13] = assay: Disruption of membrane permeability in methicillin resistant Staphylococcus aureus clinical isolate 003 assessed as protein leakage at 2 to 4 times MIC
Staphylococcus aureus [14] = assay: Antibacterial activity against methicillin resistant Staphylococcus aureus clinical isolate 003 in presence of 4.5 mM/L K+ (reference value: 0.5 ug/ml); type: functional
Cell membrane [15] = assay: Induction of membrane damage in methicillin resistant Staphylococcus aureus clinical isolate 003 assessed as deformation of bacterial surface at 2 to 4 times MIC by SEM analysis; type: cell membranes
Enterococcus faecalis [16] = assay: Antibacterial activity against multidrug resistant Enterococcus faecalis ATCC 51299 in presence of 1 mM/L Mg2+ (reference value: 32 ug/ml); type: functional
Enterococcus faecalis [17] = assay: Antibacterial activity against multidrug resistant Enterococcus faecalis ATCC 51299 in presence of 140 mM/L Na+ (reference value: 32 ug/ml); type: functional
Enterococcus faecalis [18] = assay: Antibacterial activity against multidrug resistant Enterococcus faecalis ATCC 51299 in presence of 2.5 mM/L Ca+ (reference value: 32 ug/ml); type: functional
Staphylococcus aureus [19] = assay: Antibacterial activity against methicillin resistant Staphylococcus aureus clinical isolate 003 in presence of 140 mM/L Na+ (reference value: 1 ug/ml); type: functional
Staphylococcus aureus [20] = assay: (§1) Antibacterial activity against methicillin resistant Staphylococcus aureus clinical isolate 003 infected in cyclophosphamide immunosuppressed mouse model of skin wound infection assessed as wound healing at 1.25 to 5 mg/kg administered for 7 days and measured on day 8; type: functional, organism-based; details: dose 1.25-5 mg/kg, time 8.0 day
Enterococcus faecalis [21] = assay: Synergistic antibacterial activity against multidrug resistant Enterococcus faecalis ATCC 51299 assessed as fractional inhibitory concentration in presence of tetracycline; type: functional
Staphylococcus aureus [22] = assay: (§2) Antibacterial activity against methicillin resistant Staphylococcus aureus clinical isolate 003 infected in cyclophosphamide immunosuppressed mouse model of skin wound infection assessed as reduction in bacterial load in wound at 1.25 mg/kg administered for 7 days and measured on day 8 (reference value: 1.6 x 10^8 CFU); type: functional; details: time 8 day
Enterococcus faecalis [23] = assay: Antibacterial activity against multidrug resistant Enterococcus faecalis ATCC 51299 infected in cyclophosphamide immunosuppressed mouse model of abdominal infection assessed as eradication of bacterial colonies in ascites at 1.25 to 5 mg/kg measured after 60 hrs relative to control; type: functional; details: dose 1.25-5 mg/kg
Enterococcus faecalis [24] = assay: Antibacterial activity against multidrug resistant Enterococcus faecalis ATCC 51299 infected in cyclophosphamide immunosuppressed mouse model of abdominal infection assessed as reduction in cell swelling at 1.25 to 5 mg/kg measured after 60 hrs by H and E staining based analysis; type: functional, organism-based; details: dose 1.25-5 mg/kg
Staphylococcus aureus [25] = assay: Synergistic antibacterial activity against methicillin resistant Staphylococcus aureus clinical isolate 003 assessed as fractional inhibitory concentration in presence of lincomycin hydrochloride; type: functional
Staphylococcus aureus [26] = assay: as §1, with “healing by measuring wound area” for “healing”, “at” for “at 1.25 to”, “8 (reference value: 32.1 […])” for “8”; type: functional; details: time 8 day
Enterococcus faecalis [27] = assay: Additive antibacterial activity against multidrug resistant Enterococcus faecalis ATCC 51299 assessed as fractional inhibitory concentration in presence of chloramphenicol; type: functional
Staphylococcus aureus [28] = assay: Additive antibacterial activity against methicillin resistant Staphylococcus aureus clinical isolate 003 assessed as fractional inhibitory concentration in presence of ampicillin; type: functional
Staphylococcus aureus [29] = assay: Synergistic antibacterial activity against methicillin resistant Staphylococcus aureus clinical isolate 003 assessed as fractional inhibitory concentration in presence of streptomycin; type: functional
Enterococcus faecalis [30] = assay: Additive antibacterial activity against multidrug resistant Enterococcus faecalis ATCC 51299 assessed as fractional inhibitory concentration in presence of streptomycin; type: functional
Staphylococcus aureus [31] = assay: Additive antibacterial activity against methicillin resistant Staphylococcus aureus clinical isolate 003 assessed as fractional inhibitory concentration in presence of adriamycin hydrochloride; type: functional
Enterococcus faecalis [32] = assay: Synergistic antibacterial activity against multidrug resistant Enterococcus faecalis ATCC 51299 assessed as fractional inhibitory concentration in presence of adriamycin hydrochloride; type: functional
Staphylococcus aureus [33] = assay: as §2, with “5” for “1.25”; type: functional; details: time 8 day
Staphylococcus aureus [34] = assay: Antibacterial activity against methicillin resistant Staphylococcus aureus clinical isolate 003 in presence of 140 mM/L Na+ (reference value: 0.25 ug/ml); type: functional
Enterococcus faecalis [35] = assay: Antibacterial activity against multidrug resistant Enterococcus faecalis ATCC 51299 infected in cyclophosphamide immunosuppressed mouse model of abdominal infection assessed as reduction in cell degeneration at 1.25 to 5 mg/kg measured after 60 hrs by H and E staining based analysis; type: functional, organism-based; details: dose 1.25-5 mg/kg
Staphylococcus aureus [36] = assay: as §1, with “reduction in inflammatory cells in skin” for “wound healing”, “8 by H and E staining based analysis” for “8”; type: functional, organism-based; details: dose 1.25-5 mg/kg, time 8.0 day
Enterococcus faecalis [37] = assay: Synergistic antibacterial activity against multidrug resistant Enterococcus faecalis ATCC 51299 assessed as fractional inhibitory concentration in presence of vancomycin; type: functional
Staphylococcus aureus [38] = assay: Antibacterial activity against methicillin resistant Staphylococcus aureus clinical isolate 003 infected in cyclophosphamide immunosuppressed mouse model of skin wound infection assessed as increase in wound healing by measuring increase in VEGF expression at 1.25 to 5 mg/kg administered for 7 days and measured on day 8 by immunohistochemical analysis; type: functional, organism-based; details: dose 1.25-5 mg/kg, time 8.0 day
[39] = Cytotoxicity against human L02 cells assessed as cell viability at 64 ug/ml measured after 48 hrs relative to control; type: toxicity, cell-based; details: at 64 µg/mL, read-out: Activity

Structure (SMILES)	MIC (Enterococcus faecalis [1]) [µg/mL]	Activity (Cell membrane [2])	Activity (Cell membrane [3])	MIC (Enterococcus faecalis [4]) [µg/mL]	Activity (Cell membrane [5])	Activity (Enterococcus faecalis [6])	Activity (Cell membrane [7])	Activity (Cell membrane [8])	Activity (Cell membrane [9])	MIC (Enterococcus faecalis [10]) [µg/mL]	MIC (Enterococcus faecalis [11]) [µg/mL]	MIC (Enterococcus faecalis [12]) [µg/mL]	Activity (Cell membrane [13])	Activity (Cell membrane [15])	further results
CCCCCCc1c(-c2ccc(OCCCCN(C)C)cc2OCCCCN(C)C)oc2cc(OC)cc(O)c2c1=O	1	Dose-Dependent Effect	Active	1	Active	Active	Active	Active	Active	1	1 (≈ 1.72 µM)	1	Active	Active	MIC (Staphylococcus aureus [14]): 0.5 µg/mL
CCCCCCc1c(-c2ccc(OCC(=O)CN[C@H](CCCNC(=N)N)C(=O)OC)cc2OCC(=O)CN[C@H](CCCNC(=N)N)C(=O)OC)oc2cc(OC)cc(O)c2c1=O	–	Dose-Dependent Effect	Active	–	Active	Active	Active	Active	Active	–	32 (≈ 36.8 µM)	–	Active	Active	MIC (Enterococcus faecalis [16]): 32 µg/mL; MIC (Enterococcus faecalis [17]): 32 µg/mL; MIC (Enterococcus faecalis [18]): 32 µg/mL; MIC (Staphylococcus aureus [19]): 1 µg/mL
CCCCCCc1c(-c2ccc(OCCCCNCCCN)cc2OCCCCNCCCN)oc2cc(OC)cc(O)c2c1=O	1	Dose-Dependent Effect	Active	1	Active	Active	Active	Active	Active	1	0.5 (≈ 0.78 µM)	1	Active	Active	Activity (Staphylococcus aureus [20]): Active; fractional inhibitory concentration index (FICI) (Enterococcus faecalis [21]): 0.25; Activity (Staphylococcus aureus [22]): 9.2 10^6CFU; Activity (Enterococcus faecalis [23]): 92.2%; Activity (Enterococcus faecalis [24]): Active; fractional inhibitory concentration index (FICI) (Staphylococcus aureus [25]): 0.313; Activity (Staphylococcus aureus [26]): 2.1 mm²; fractional inhibitory concentration index (FICI) (Enterococcus faecalis [27]): 0.75; fractional inhibitory concentration index (FICI) (Staphylococcus aureus [28]): 0.75; fractional inhibitory concentration index (FICI) (Staphylococcus aureus [29]): 0.375; fractional inhibitory concentration index (FICI) (Enterococcus faecalis [30]): 0.75; fractional inhibitory concentration index (FICI) (Staphylococcus aureus [31]): 0.75; fractional inhibitory concentration index (FICI) (Enterococcus faecalis [32]): 0.5; Activity (Staphylococcus aureus [33]): 9.4 10^6CFU; MIC (Staphylococcus aureus [34]): 0.25 µg/mL; Activity (Enterococcus faecalis [35]): Active; Activity (Staphylococcus aureus [36]): Active; fractional inhibitory concentration index (FICI) (Enterococcus faecalis [37]): 0.375; Activity (Staphylococcus aureus [38]): Active; viability at 48 h, 64 ug/ml [39]: > 50%
